The subject of the data set is psoriasis. In words: Topical treatment of a person suffering from psoriasis. In kind it is in vivo. The following applies: 0.1% Protopic ointment twice a day plus 0.1% tazarotene (Tazorac) once a day in the same person; compared with 0.1% tazarotene alone once a day or 0.1% tacrilomus alone twice a day. On the procedure: A composition according to one of examples 1-3 is administered topically once a day to person suffering from psoriasis.
Tacrilomus is administered twice a day as 0.1% Protopic® ointment to a person suffering from psoriasis. The same person receives 0.1% tazarotene as Tazorac® ointment once a day.

SMILES strings stand for the structures.

In the case of `C=CC[C@@H]1/C=C(\C)C[C@H](C)C[C@H](OC)[C@H]2O[C@@](O)(C(=O)C(=O)N3CCCC[C@H]3C(=O)O[C@H](/C(C)=C/[C@@H]3CC[C@@H](O)[C@H](OC)C3)[C@H](C)[C@@H](O)CC1=O)[C@H](C)C[C@@H]2OC` [Tacrilomus, tacrolimus], the “Improvement of symptoms (efficacy)” value is given as “greater efficacy” and the side effects result is “fewer side effects”.
